# From article PMC8524670 (Pharmacology Research & Perspectives, 2021)
# Structures can show the parent of a compound that is named as a salt.
# Assays:
# [1] = molecular target: T1, OCT2 (Homo sapiens, UniProt O15244); experiment: SLC inhibition assay in HEK293 cells; type: in vitro ADME; details: human, HEK293 cells overexpressing OCT2 (and MOCK cells), probe metformin
# T1 sequence (O15244 1-555): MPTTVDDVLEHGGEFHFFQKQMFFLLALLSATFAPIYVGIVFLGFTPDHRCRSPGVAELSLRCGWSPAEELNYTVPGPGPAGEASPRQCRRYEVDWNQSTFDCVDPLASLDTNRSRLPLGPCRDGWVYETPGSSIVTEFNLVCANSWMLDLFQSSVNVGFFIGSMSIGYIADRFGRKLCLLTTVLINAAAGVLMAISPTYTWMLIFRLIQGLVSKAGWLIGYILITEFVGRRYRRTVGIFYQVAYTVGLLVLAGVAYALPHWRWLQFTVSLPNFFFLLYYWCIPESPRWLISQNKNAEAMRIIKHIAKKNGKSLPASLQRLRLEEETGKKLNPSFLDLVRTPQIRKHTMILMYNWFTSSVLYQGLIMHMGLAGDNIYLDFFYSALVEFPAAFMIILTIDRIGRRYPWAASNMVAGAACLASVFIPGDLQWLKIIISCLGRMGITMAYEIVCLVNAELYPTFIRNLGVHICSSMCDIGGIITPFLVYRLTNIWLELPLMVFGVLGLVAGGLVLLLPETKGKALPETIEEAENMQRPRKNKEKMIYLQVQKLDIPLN
# [2] = molecular target: T2, OATP1B1 (Homo sapiens, UniProt Q9Y6L6); experiment: SLC transportation assay in HEK293 cells; type: in vitro ADME; details: control substrate, 20 µM
# T2 sequence (Q9Y6L6 1-691): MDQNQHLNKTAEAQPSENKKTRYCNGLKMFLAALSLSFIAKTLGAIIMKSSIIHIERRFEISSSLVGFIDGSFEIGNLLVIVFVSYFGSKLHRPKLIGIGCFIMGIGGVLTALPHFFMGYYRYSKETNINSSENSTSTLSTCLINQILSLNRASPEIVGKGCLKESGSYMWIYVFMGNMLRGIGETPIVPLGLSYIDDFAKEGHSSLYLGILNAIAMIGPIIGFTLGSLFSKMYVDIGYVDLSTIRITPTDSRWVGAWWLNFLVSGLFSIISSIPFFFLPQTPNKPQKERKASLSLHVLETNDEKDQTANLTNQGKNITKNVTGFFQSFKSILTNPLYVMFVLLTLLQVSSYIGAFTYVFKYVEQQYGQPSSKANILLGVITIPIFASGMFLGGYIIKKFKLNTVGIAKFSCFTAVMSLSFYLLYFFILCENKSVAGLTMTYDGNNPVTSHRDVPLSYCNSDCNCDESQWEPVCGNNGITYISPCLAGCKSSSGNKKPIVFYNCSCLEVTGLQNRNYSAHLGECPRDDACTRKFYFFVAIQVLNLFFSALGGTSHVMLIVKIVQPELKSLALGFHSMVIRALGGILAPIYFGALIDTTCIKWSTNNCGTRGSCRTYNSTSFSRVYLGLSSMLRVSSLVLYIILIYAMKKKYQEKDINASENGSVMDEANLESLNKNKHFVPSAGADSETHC
# [3] = molecular target: T3, OATP1B3 (Homo sapiens, UniProt Q9NPD5); experiment: SLC transportation assay in HEK293 cells; type: in vitro ADME; details: control substrate, 20 µM
# T3 sequence (Q9NPD5 1-702): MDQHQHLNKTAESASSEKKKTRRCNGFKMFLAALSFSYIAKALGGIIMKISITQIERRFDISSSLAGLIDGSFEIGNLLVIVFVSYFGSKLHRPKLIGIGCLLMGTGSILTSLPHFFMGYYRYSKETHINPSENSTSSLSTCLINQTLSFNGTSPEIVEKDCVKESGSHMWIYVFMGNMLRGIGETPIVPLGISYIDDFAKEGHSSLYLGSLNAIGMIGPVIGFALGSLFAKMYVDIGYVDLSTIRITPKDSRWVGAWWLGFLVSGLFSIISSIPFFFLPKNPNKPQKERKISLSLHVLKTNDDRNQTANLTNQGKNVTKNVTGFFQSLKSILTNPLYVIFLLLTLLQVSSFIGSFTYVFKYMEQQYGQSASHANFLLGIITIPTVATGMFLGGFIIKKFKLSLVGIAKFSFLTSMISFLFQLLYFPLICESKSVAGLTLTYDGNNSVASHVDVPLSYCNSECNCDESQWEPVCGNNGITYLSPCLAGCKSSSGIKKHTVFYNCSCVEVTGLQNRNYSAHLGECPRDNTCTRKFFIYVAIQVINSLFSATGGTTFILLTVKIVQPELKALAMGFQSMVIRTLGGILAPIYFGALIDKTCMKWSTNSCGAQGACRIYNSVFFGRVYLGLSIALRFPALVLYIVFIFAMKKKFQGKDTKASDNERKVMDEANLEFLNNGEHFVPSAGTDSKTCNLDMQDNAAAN
# [4] = molecular target: T4, P-gp (Homo sapiens, UniProt P08183); experiment: P-gp inhibition in Caco-2 cells; type: in vitro ADME; details: human, Caco-2, probe digoxin
# [5] = tested on: CYP2B6; experiment: CYP induction in human hepatocytes; type: in vitro ADME; details: human, cryopreserved human hepatocytes
# [6] = molecular target: T4, P-gp; details: healthy subjects; cited from earlier work
# [7] = molecular target: T1, OCT2; experiment: SLC transportation assay in HEK293 cells; type: in vitro ADME; details: control substrate, 50 µM
# [8] = tested on: CYP1A2; experiment: in vitro; details: human, positive control omeprazole 50 µM
# [9] = tested on: CYP3A; details: cited from earlier work
# [10] = molecular target: T5, OAT3 (Homo sapiens, UniProt Q8TCC7); experiment: SLC transportation assay in HEK293 cells; type: in vitro ADME; details: control substrate, 20 µM
# T5 sequence (Q8TCC7 1-542): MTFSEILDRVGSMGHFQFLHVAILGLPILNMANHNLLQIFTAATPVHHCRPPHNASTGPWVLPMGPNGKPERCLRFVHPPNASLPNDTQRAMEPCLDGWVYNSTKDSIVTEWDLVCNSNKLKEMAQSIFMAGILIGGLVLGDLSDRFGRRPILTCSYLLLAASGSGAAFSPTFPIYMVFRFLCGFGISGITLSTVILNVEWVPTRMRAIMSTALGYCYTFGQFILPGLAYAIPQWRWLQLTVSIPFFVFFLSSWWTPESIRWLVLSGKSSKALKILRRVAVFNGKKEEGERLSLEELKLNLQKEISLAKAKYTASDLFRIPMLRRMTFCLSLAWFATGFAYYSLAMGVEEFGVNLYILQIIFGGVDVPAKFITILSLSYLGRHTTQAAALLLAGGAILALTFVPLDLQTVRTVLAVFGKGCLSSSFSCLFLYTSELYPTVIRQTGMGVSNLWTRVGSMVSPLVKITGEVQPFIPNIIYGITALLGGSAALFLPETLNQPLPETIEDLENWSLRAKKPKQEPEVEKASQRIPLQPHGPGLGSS
# [11] = molecular target: T5, OAT3; experiment: SLC inhibition assay in HEK293 cells; type: in vitro ADME; details: human, HEK293 cells overexpressing OAT3 (and MOCK cells), probe estrone sulfate
# [12] = molecular target: T6, human BCRP (Homo sapiens, UniProt Q9UNQ0); experiment: BCRP transportation in inside-out vesicles; type: in vitro ADME; details: BCRP vesicles, LFY 10 μM probe substrate
# T6 sequence (Q9UNQ0 1-655): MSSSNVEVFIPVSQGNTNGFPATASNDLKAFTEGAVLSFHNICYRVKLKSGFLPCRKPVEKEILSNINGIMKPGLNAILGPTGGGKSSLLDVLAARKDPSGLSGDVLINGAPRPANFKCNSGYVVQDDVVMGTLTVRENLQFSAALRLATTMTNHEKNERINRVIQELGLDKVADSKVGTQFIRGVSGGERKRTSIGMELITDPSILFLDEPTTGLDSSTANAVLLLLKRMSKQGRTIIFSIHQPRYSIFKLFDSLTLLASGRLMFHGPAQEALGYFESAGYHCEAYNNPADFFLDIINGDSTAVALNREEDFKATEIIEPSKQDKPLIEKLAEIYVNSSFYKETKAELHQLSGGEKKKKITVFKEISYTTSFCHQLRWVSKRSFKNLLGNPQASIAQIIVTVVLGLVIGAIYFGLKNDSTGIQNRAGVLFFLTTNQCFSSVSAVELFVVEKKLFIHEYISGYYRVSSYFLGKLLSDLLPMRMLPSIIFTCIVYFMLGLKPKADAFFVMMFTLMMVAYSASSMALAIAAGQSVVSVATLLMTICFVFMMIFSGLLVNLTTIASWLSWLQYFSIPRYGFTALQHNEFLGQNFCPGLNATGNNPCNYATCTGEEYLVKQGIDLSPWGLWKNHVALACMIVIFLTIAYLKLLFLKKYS
# [13] = molecular target: T6, human BCRP; experiment: BCRP inhibition in vesicles; type: in vitro ADME; details: BCRP inhibition assay, buffer vehicle
# T4 sequence (P08183 whole entry): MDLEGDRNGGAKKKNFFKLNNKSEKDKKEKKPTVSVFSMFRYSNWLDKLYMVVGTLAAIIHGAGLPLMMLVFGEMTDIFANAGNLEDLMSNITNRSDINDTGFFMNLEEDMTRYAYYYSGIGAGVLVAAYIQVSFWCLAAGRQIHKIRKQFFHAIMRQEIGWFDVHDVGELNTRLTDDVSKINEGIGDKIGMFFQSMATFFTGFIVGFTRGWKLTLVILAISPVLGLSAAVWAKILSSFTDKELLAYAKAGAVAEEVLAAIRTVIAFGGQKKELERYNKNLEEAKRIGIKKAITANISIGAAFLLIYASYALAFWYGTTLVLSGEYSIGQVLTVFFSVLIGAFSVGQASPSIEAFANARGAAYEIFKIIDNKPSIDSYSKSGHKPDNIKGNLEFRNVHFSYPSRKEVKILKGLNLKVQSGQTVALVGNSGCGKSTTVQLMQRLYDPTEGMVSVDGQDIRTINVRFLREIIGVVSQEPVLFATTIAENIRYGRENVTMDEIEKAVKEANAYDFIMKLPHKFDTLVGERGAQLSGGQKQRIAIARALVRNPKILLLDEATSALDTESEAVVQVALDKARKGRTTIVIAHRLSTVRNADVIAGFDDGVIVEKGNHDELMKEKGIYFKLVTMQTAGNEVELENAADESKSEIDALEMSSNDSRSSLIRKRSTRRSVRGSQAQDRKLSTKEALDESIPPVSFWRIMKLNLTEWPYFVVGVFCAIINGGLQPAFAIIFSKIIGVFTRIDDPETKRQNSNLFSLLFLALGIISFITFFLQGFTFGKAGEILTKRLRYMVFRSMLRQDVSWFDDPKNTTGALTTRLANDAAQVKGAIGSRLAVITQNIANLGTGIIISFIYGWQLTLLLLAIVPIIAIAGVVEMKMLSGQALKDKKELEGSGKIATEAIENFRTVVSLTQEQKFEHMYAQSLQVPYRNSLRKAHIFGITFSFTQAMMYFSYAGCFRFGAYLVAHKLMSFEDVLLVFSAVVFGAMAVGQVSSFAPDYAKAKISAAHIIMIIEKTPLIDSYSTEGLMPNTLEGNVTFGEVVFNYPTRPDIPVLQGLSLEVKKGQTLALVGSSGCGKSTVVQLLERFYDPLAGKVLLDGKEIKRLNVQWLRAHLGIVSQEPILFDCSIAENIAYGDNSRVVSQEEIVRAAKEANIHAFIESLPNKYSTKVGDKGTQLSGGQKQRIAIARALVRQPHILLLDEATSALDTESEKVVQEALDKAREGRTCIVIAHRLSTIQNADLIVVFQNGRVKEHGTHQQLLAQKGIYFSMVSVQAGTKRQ
compound,measurement,setting,value
"C=C[C@H]1C[N@@]2CC[C@H]1C[C@@H]2[C@@H](O)c1ccnc2ccc(OC)cc12 [Quinidine, reference compound]",activity at 500 µM,[1],31.5 ± 8%
"C[C@]12CC[C@@H]3c4ccc(O)cc4CC[C@H]3[C@@H]1CC[C@@H]2O[C@@H]1O[C@H](C(=O)O)[C@@H](O)[C@H](O)[C@H]1O [Estradiol‐17β‐glucuronide, reference compound]",Uptake ratio,[2],38.5 ± 5.5
same,Uptake ratio,[3],5.82 ± 0.62
"C[C@H]1O[C@@H](O[C@H]2[C@@H](O)C[C@H](O[C@H]3[C@@H](O)C[C@H](O[C@H]4CC[C@@]5(C)[C@H](CC[C@@H]6[C@@H]5C[C@@H](O)[C@]5(C)[C@@H](C7=CC(=O)OC7)CC[C@]65O)C4)O[C@@H]3C)O[C@@H]2C)C[C@H](O)[C@@H]1O [Digoxin, reference compound]","Papp B→A at 120 min, 10 µM",[4],15.4 ± 0.4 ×10⁻⁶ cm/s
"CCC1(c2ccccc2)C(=O)NC(=O)NC1=O [phenobarbital, reference compound]","fold induction at 2 days, 1000 µM",[5],6.4 ± 3
same,"fold induction at 2 days, 1000 µM",[5]; probe bupropion,9.6 ± 5.4
CCOc1cc2ncc(C#N)c(Nc3ccc(OCc4ccccn4)c(Cl)c3)c2cc1NC(=O)/C=C/CN(C)C [neratinib],Increase of AUC of digoxin,[6],32%
same,Increase of mean digoxin C max,[6],54%
"CN(C)C(=N)N=C(N)N [Metformin, reference compound]",Uptake ratio,[7],3.49 ± 0.26
COc1ccc2[nH]c([S+]([O-])Cc3ncc(C)c(OC)c3C)nc2c1 (stereo not shown) [Omeprazole],"fold induction at 2 days, 50 µM",[8]; Fold induction of activity,42 ± 6.4
same,"fold induction at 2 days, 50 µM",[8]; Fold induction of mRNA level,82 ± 94
CC[C@H](Nc1ncnc2[nH]cnc12)c1nc2cccc(F)c2c(=O)n1-c1ccccc1 [idelalisib],Increase of exposure of midazolam,[9],5.15 fold
"C[C@]12CC[C@@H]3c4ccc(OS(=O)(=O)O)cc4CC[C@H]3[C@@H]1CCC2=O [Estrone sulfate, reference compound]",Uptake ratio,[10],16.1 ± 0.45
"CCCN(CCC)S(=O)(=O)c1ccc(C(=O)O)cc1 [Probenecid, reference compound]",activity at 50 µM,[11],12.5 ± 8%
"Lucifer Yellow [LFY, reference compound]",Uptake ratio (ATP versus AMP),[12],17.4 ± 0.31 fold
same,Uptake ratio of LFY,[13],14.9 fold
